What all share (test): Calcein AM viability assay, dilution-series retest
One assay concerns BJ primary cells. The format is cell-based, human. Particulars: Homo sapiens, 48 h, read-out: concentration required to achieve 50% inhibition of calcein AM staining (IC50), BJ. The source says: (§1) Described here is work carried out to identify compounds with increased potency or activity in the presence of hTERT, LT, ST, E6, E7 or RAS^V12. Engineered cell lines with these genetic elements were used to screen […] compounds, including 20,000 compounds from a combinatorial library, 1,990 compounds from the National Cancer Institute diversity collection, and 1,540 biologically active known compounds that were selected and purchased by Applicant and formatted into a screenable collection. The primary screen tested (in quadruplicate) the effect of treating tumorigenic BJ-TERT/LT/ST/RAS^V12 engineered tumorigenic cells with each compound for 48 hours at a concentration of 4 μg/mL, corresponding to 10 μM for a compound with a molecular weight of 400, which is the approximate median molecular weight of the libraries. Cell viability was measured using the dye calcein acetoxymethyl ester (calcein AM) (Wang et al., 1993, Hum. Immunol. 3 7, 264-270), which is a non-fluorescent compound that freely diffuses into cells. In live cells, calcein AM is cleaved by intracellular esterases, forming the anionic fluorescent derivative calcein, which cannot diffuse out of live cells. […] The IC50 value (concentration required to inhibit 50% of the calcein AM signal) was calculated for each compound in each cell line (Table 1). […] Following is a more detailed analysis of these nine compounds.
(§2) Calcein acetoxylmethyl ester (AM) is a cell membrane-permeable, non-fluorescent compound that is cleaved by intracellular esterases to form the anionic, cell-impermeable, fluorescent compound calcein. Viable cells are stained by calcein because of the presence of intracellular esterases and because the intact plasma membrane prevents fluorescent calcein from leaking out of cells (Wang et al., 1993, supra). Cells were seeded in 384-well plates using a Zymark Sciclone ALH, treated with each compound in triplicate at 4 μg/mL in the primary screen for two days, washed with phosphate-buffered saline on a Packard Minitrak with a 384-well washer and incubated for four hours with 0.7 μg/mL calcein (Molecular Probes). Total fluorescence intensity in each well was recorded on a Packard Fusion platereader, and converted to a percent inhibition of signal by subtracting the instrument background and dividing by the average signal obtained when cells were not treated with any compound.
(§3) Replica daughter plates were prepared with a Zymark Sciclone ALH and integrated Twister II by diluting stock plates 50 fold in medium lacking serum and pen/strep to obtain a compound concentration in daughter plates of 80 μg/ml with 2% DMSO. Assay plates were prepared by seeding cells in black, clear bottom 384-well plates in columns 1-23 (6000 cells/well in 57 μl) using a syringe bulk dispenser. Columns 3-22 were treated with compounds from a daughter library plate by transferring 3 μl from the daughter library plate using 384-position fixed cannula array. The final compound concentrations in assay plates were thus 4 μg/ml. The assay plates were incubated for 48 hours at 37° C. in humidified incubator containing 5% CO2. Plate processing for the calcein AM viability assay was performed using an integrated Minitrak/Sidetrak robotic system from Packard Bioscience (Perkin Elmer). Assay plates were washed with phosphate buffered saline, and 20 μl of calcein AM (0.7 μg/ml) per well was added. Plates were incubated at room temperature for 4 hours. Fluorescence intensity was determined using a Fusion platereader with filters centered on an excitation of 485 nm and an emission of 535 nm.
(§4) Compounds to be retested were purchased from manufacturers. Stocks were prepared in DMSO at a concentration of 1 mg/ml in 384-well polypropylene plates with a 16-point, two-fold dilution dose curve of each compound in a column, in duplicates. Column 1-2 and 23-24 were left empty for controls. […]

In assay [1] the test system is BJ-TERT/LT/RAS^V12/ST cells. It is filed as cell-based, human. Particulars: Homo sapiens, 48 h, read-out: IC50, BJ-TERT/LT/Ras^V12/ST.
Excerpt: as §1, §2, §3, §4

In the next assay the test system is BJ-TERT/LT/ST cells. It is filed as cell-based, human. Particulars: Homo sapiens, 48 h, read-out: IC50, BJ-TERT/LT/ST.
Excerpt: as §1, §2, §3, §4

A further assay deals with TIP5/TERT/LT/ST cells. It is filed as cell-based. Particulars: Homo sapiens, 48 h, read-out: IC50, TIP5 TERT/LT/ST.
Excerpt: (§5) In a third series, cell lines derived from independently prepared human TIP5 foreskin fibroblasts created by introducing cDNA constructs encoding hTERT, LT, ST and RASV12 (Lessnick et al., 2002, Cancer Cell 1, 393-401) were used. These cell lines were called, respectively: TIP5/TERT, TIP5/TERT/LT, TIP5/TERT/LT/ST, and TIP5/TERT/LT/ST/RAS^V12. In a fourth series, cell lines derived from TIP5 fibroblasts created by introducing cDNA constructs encoding hTERT, E6, E7, ST and RAS^V12 were used. These cell lines were named, respectively: TIP5/TERT/E6, TIP5/TERT/E6/E7, TIP5/TERT/E6/E7/ST, and TIP5/TERT/E6/E7/ST/RAS^V12. In this series, HPV E6 and E7, which inactivate p53 and RB, respectively, serve a similar function as LT in the previous series. However, by using HPV E6 and E7, Applicants were able to observe the effects of inactivating, separately and independently, p53 and RB. Results of a large-scale screen for compounds that display selective killing of these engineered tumorigenic cell lines are described in the examples that follow.
as §2, §3
(§6) Compounds to be retested were purchased from manufacturers. Stocks were prepared in DMSO at a concentration of 1 mg/ml in 384-well polypropylene plates with a 16-point, two-fold dilution dose curve of each compound in a column, in duplicates. Column 1-2 and 23-24 were left empty for controls. Daughter retest plates were prepared from stock retest plate by diluting 66.6 fold in DMEM in 384-well deep-deep well plates (4.5 μl transfer into 300 μl). Cells were seeded at a density of 6000 per well in 40 μl, and 20 μl was added from a daughter retest plate. The plates were incubated for two days at 37° C. with 5% CO2.
(§7) Mean RFU (relative fluorescence units) for untreated cells was calculated by averaging columns 1, 2, and 23 (wells with cells but lacking compounds). […]

The test system of the next assay is TIP5/TERT/E6 cells. It is filed as cell-based. Particulars: Homo sapiens, 48 h, read-out: IC50, TIP-TERT/E6.
Excerpt: as §5, §2, §3, §6, §7

Setting [2] is: BJ cells, 16-point two-fold dilution, two days.
The mark [3] stands for this setting: BJ-TERT/LT/Ras^V12/ST cells, 16-point two-fold dilution, two days.
Where [4] appears, read: BJ-TERT/LT/ST cells, 16-point two-fold dilution, two days.
Setting [5] is: TIP5 TERT/LT/ST cells, 16-point two-fold dilution, two days.
The mark [6] stands for this setting: TIP-TERT/E6 cells, 16-point two-fold dilution, two days.

In brackets after ≈: the same amount, converted by molar mass. Like-named read-outs stand apart in the source and are kept apart here.

For `COc1ccc(C[C@H]2C(=O)N[C@@H](C)C(=O)N(C)[C@@H]3C(=O)N(C)[C@@H](Cc4ccc(O)c(c4)Oc4ccc(cc4)[C@@H]3O)C(=O)N[C@H](C)C(=O)N[C@@H](C)C(=O)N2C)cc1` [Bouvardin], the IC50 in the assay on BJ primary cells (BJ) is 0.312 µg/mL (≈ 0.404 µM); in assay [1], 0.0195 µg/mL (≈ 0.0252 µM); in the assay with BJ-TERT/LT/ST cells it was 0.0195 µg/mL (≈ 0.0252 µM); in the assay on TIP5/TERT/LT/ST cells it was 0.039 µg/mL (≈ 0.0505 µM); in the assay on TIP5/TERT/E6 cells, 0.078 µg/mL (≈ 0.101 µM).
As for `CC[C@@]1(O)C(=O)OCc2c1cc1n(c2=O)Cc2cc3ccccc3nc2-1` [Camptothecin], the IC50 is greater than 5 µg/mL in the assay with BJ primary cells (setting [2]); 0.0195 µg/mL (≈ 0.056 µM) in assay [1] (setting [3]); 1.25 µg/mL (≈ 3.59 µM) with BJ-TERT/LT/ST cells (setting [4]); 0.156 µg/mL (≈ 0.448 µM) in the assay on TIP5/TERT/LT/ST cells (setting [5]); greater than 5 µg/mL with TIP5/TERT/E6 cells (setting [6]).
On to `COc1cccc2c1C(=O)c1c(O)c3c(c(O)c1C2=O)C[C@@](O)(C(C)=O)C[C@@H]3O[C@H]1C[C@H](N)[C@H](O)[C@H](C)O1` [Daunorubicin], for which the IC50 in the assay with BJ primary cells (BJ) is 5 µg/mL (≈ 9.48 µM); in assay [1], 0.625 µg/mL (≈ 1.18 µM); in the assay with BJ-TERT/LT/ST cells, 0.312 µg/mL (≈ 0.591 µM); in the assay on TIP5/TERT/LT/ST cells, 0.625 µg/mL (≈ 1.18 µM); in the assay on TIP5/TERT/E6 cells it was 5 µg/mL (≈ 9.48 µM).
As to `COc1cccc2c1C(=O)c1c(O)c3c(c(O)c1C2=O)C[C@@](O)(C(=O)CO)C[C@@H]3O[C@H]1C[C@H](N)[C@H](O)[C@H](C)O1` [Doxorubicin], the IC50 in the assay with BJ primary cells (setting [2]) is greater than 5 µg/mL; in assay [1] (setting [3]), 1.25 µg/mL (≈ 2.3 µM); in the assay with BJ-TERT/LT/ST cells (setting [4]), 0.312 µg/mL (≈ 0.574 µM); with TIP5/TERT/LT/ST cells (setting [5]), 0.625 µg/mL (≈ 1.15 µM); in the assay on TIP5/TERT/E6 cells (setting [6]) it was 5 µg/mL (≈ 9.2 µM).
In the case of `CS[C@H]1SC[C@H]2C(=O)N(C)[C@@H](C(C)C)C(=O)OC[C@@H](NC(=O)c3cnc4ccccc4n3)C(=O)N[C@@H](C)C(=O)N(C)[C@@H]1C(=O)N(C)[C@@H](C(C)C)C(=O)OC[C@@H](NC(=O)c1cnc3ccccc3n1)C(=O)N[C@@H](C)C(=O)N2C` [Echinomycin], the IC50 is greater than 5 µg/mL with BJ primary cells (BJ); 0.0012 µg/mL (≈ 0.00109 µM) in assay [1]; 0.0048 µg/mL (≈ 0.00436 µM) with BJ-TERT/LT/ST cells; 0.0048 µg/mL (≈ 0.00436 µM) with TIP5/TERT/LT/ST cells; greater than 5 µg/mL in the assay on TIP5/TERT/E6 cells.
In the case of `CCOc1ccccc1-n1c(C(C)N2CCN(C(=O)COc3ccc(Cl)cc3)CC2)nc2ccccc2c1=O` (stereo not shown) [Erastin], the IC50 in the assay on BJ primary cells (setting [2]) was greater than 5 µg/mL; in assay [1] (setting [3]), 1.25 µg/mL (≈ 2.28 µM); in the assay on BJ-TERT/LT/ST cells (setting [4]), greater than 5 µg/mL; in the assay on TIP5/TERT/LT/ST cells (setting [5]), 5 µg/mL (≈ 9.14 µM); with TIP5/TERT/E6 cells (setting [6]) it was greater than 5 µg/mL.
Consider `O=C1c2c(O)ccc(O)c2C(=O)c2c(NCCNCCO)ccc(NCCNCCO)c21` [Mitoxantrone], for which the IC50 is 5 µg/mL (≈ 11.2 µM) with BJ primary cells (setting [2]); 0.312 µg/mL (≈ 0.702 µM) in assay [1] (setting [3]); 0.312 µg/mL (≈ 0.702 µM) in the assay with BJ-TERT/LT/ST cells (setting [4]); 0.625 µg/mL (≈ 1.41 µM) in the assay on TIP5/TERT/LT/ST cells (setting [5]); 1.25 µg/mL (≈ 2.81 µM) with TIP5/TERT/E6 cells (setting [6]).
For `NC(=O)c1cn([C@@H]2O[C@H](CO)[C@@H](O)[C@H]2O)c2ncnc(N)c12` [Sangivamycin], the IC50 is 0.312 µg/mL (≈ 1.01 µM) with BJ primary cells (BJ); 0.078 µg/mL (≈ 0.252 µM) in assay [1]; 0.195 µg/mL (≈ 0.63 µM) with BJ-TERT/LT/ST cells; 0.039 µg/mL (≈ 0.126 µM) with TIP5/TERT/LT/ST cells; 0.156 µg/mL (≈ 0.504 µM) with TIP5/TERT/E6 cells.
